Measurements as given in patent US10266497B2 (ABIDE THERAPEUTICS, INC., priority 2017, dated 2019).
Read-outs that look alike come from different tables or passages of the source.

Experiments:
MAGL [1] = biological target: T1, MAGL (Homo sapiens, UniProt Q99685); assay: In vitro competitive activity-based protein profiling, MAGL, human; settings: read-out: MAGL % inh. 1 μM (human)
T1 sequence (Q99685 1-303): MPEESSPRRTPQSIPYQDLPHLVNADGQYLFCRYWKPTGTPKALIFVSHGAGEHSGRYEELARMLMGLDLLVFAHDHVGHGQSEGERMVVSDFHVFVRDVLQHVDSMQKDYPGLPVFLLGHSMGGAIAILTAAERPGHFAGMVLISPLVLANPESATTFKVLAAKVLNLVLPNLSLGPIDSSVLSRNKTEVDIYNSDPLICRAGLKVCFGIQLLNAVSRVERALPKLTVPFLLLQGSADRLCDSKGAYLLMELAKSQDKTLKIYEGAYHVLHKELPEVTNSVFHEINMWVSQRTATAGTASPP

MAGL [2] = biological target: T2, MAGL (Mus musculus, UniProt O35678); assay: In vitro competitive activity-based protein profiling, MAGL, mouse; settings: read-out: MAGL % inh. 1 μM (mouse)
T2 sequence (O35678 1-303): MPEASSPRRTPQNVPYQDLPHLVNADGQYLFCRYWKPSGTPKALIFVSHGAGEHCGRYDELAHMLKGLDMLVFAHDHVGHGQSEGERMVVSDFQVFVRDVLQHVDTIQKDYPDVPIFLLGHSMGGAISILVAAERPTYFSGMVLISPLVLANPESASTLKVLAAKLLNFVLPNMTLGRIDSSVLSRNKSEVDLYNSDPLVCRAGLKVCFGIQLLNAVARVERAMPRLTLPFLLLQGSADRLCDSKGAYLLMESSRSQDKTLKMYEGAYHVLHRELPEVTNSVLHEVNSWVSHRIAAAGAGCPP

MAGL [3] = biological target: T2, MAGL; assay: Mouse brain proteomes from inhibitor treated mice (oral gavage, sacrificed 4 h after administration); assay type: in vivo; set-up: mouse brain membrane fraction for mouse assays; from tissue; host or cells: mouse brain (membrane fraction in vitro; brain proteomes of treated C57Bl/6J mice in vivo); settings: 5 mg/kg oral gavage, brain proteome 4 h after administration, read-out: MAGL % inh. 5 mg/kg (mouse)
FAAH [4] = biological target: T3, FAAH (Homo sapiens, UniProt O00519); assay: In vitro competitive activity-based protein profiling, FAAH, human; settings: for inhibition at 1 µM: read-out: FAAH % inh. 1 μM (human)
T3 sequence (O00519 1-579): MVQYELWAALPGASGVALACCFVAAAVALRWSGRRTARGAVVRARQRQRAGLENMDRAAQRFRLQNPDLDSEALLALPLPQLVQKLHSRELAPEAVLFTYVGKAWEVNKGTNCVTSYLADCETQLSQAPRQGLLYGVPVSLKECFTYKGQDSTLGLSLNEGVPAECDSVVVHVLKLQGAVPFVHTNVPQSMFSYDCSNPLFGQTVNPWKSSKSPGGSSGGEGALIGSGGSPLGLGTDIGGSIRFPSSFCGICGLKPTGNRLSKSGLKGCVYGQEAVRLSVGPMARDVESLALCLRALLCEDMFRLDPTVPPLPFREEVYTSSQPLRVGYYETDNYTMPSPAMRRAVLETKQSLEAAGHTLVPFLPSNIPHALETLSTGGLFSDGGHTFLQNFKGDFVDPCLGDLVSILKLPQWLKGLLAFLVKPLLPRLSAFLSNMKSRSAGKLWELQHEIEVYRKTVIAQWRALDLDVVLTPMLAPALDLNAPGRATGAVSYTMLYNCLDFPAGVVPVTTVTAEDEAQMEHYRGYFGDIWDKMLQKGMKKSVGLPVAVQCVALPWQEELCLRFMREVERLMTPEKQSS

FAAH [5] = biological target: T4, FAAH (Mus musculus, UniProt O08914); assay: In vitro competitive activity-based protein profiling, FAAH, mouse; settings: read-out: FAAH % inh. 1 μM (mouse)
T4 sequence (O08914 1-579): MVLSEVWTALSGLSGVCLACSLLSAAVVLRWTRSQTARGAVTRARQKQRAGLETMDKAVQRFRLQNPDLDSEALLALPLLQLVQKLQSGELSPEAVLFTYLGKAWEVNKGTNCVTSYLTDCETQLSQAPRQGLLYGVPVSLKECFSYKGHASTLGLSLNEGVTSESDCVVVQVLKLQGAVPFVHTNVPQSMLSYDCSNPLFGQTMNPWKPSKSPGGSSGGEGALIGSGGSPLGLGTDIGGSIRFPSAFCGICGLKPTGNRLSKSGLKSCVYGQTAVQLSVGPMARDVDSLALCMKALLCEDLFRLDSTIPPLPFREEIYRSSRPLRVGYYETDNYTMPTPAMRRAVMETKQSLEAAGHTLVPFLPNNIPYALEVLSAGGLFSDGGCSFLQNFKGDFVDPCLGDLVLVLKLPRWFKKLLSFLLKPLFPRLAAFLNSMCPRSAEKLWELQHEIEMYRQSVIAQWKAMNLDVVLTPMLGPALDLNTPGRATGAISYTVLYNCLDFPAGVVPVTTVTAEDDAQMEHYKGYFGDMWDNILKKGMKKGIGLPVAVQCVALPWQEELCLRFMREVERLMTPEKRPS

| Compound | inhibition at 1 µM (MAGL [1]) | inhibition at 1 µM (MAGL [2]) | inhibition at 5 mg/kg (MAGL [3]) | inhibition at 1 µM (FAAH [4]) | inhibition at 1 µM (FAAH [5]) | IC50 (FAAH [4]) | inhibition at 5 mg/kg (MAGL [3]; C57Bl/6J mice) |
| --- | --- | --- | --- | --- | --- | --- | --- |
| O=C(O)c1nn(C(=O)N2CCC3(CCN(Cc4cccc(Cl)c4C(F)(F)F)C3)CC2)cc1Cl [Example 26, 4-Chloro-1-(2-(3-chloro-2-(trifluoromethyl)benzyl)-2,8-diazaspiro[4.5]decane-8-carbonyl)-1H-pyrazole-3-carboxylic Acid] | > 75% | > 75% | 0 to 25% |  |  |  |  |
| NC(=O)c1ccn(C(=O)N2CC3CN(Cc4ccc(C5(C(=O)O)CCOCC5)cc4C(F)(F)F)CC3C2)n1 (stereo not shown) [Example 35, 4-(4-((5-(3-carbamoyl-1H-pyrazole-1-carbonyl)hexahydropyrrolo[3,4-c]pyrrol-2(1H)-yl)methyl)-3-(trifluoromethyl)phenyl)tetrahydro-2H-pyran-4-carboxylic Acid] | > 75% | > 75% | 0 to 25% |  |  |  |  |
| O=C(O)c1ccn(C(=O)N2C[C@H]3C[C@@H](OCc4cc(F)cc(Cl)c4)C[C@H]3C2)n1 [Example 193, 1-(cis-5-((3-chloro-5-fluorobenzyl)oxy)octahydrocyclopenta [c]pyrrole-2-carbonyl)-1H-pyrazole-3-carboxylic acid] | 25 to 50% | 25 to 50% |  | > 75% | > 75% |  |  |
| NC(=O)c1ccn(C(=O)N2CCC3(CCN(Cc4ccc(N5CCCC5)cc4C(F)(F)F)C3)CC2)n1 [Example 195, 1-(2-(4-(pyrrolidin-1-yl)-2-(trifluoromethyl)benzyl)-2,8-diazaspiro[4.5]decane-8-carbonyl)-1H-pyrazole-3-carboxamide] | > 75% | 0 to 25% |  | > 75% | > 75% |  |  |
| NC(=O)c1ccn(C(=O)N2CCC3(CCN(Cc4ccc(N5CCOCC5)cc4Cl)C3)CC2)n1 [Example 197, 1-(2-(2-chloro-4-morpholinobenzyl)-2,8-diazaspiro[4.5]decane-8-carbonyl)-1H-pyrazole-3-carboxamide] | > 75% | > 75% |  | > 75% | > 75% | 100 to 1000 nM |  |
| NC(=O)c1ccn(C(=O)N2CC3CN(Cc4ccc(Cl)cc4)CC3C2)n1 (stereo not shown) [Example 203, 1-(5-(4-chlorobenzyl)octa-hydropyrrolo[3,4-c]pyrrole-2-carbonyl)-1H-pyrazole-3-carboxamide] | > 75% | > 75% |  | > 75% | > 75% |  |  |
| CN(Cc1cc(Cl)ccc1C(F)(F)F)CC1CCN(C(=O)n2ccc(C(=O)O)n2)CC1 [Example 209, 1-(4-(((5-chloro-2-(trifluoromethyl)benzyl)(methyl)amino)methyl)piper-idine-1-carbonyl)-1H-pyrazole-3-carboxylic acid] | > 75% | > 75% |  | > 75% | > 75% | 100 to 1000 nM |  |
| CNC(=O)c1ccn(C(=O)N2CC3CN(Cc4ccc(Cl)cc4)CC3C2)n1 (stereo not shown) [Example 424, 1-(5-(4-chlorobenzyl)octahydropyrrolo [3,4-c]pyrrole-2-carbonyl)-N-methyl-1H-pyrazole-3-carboxamide] |  | > 75% |  |  |  |  | > 75% |
| NC(=O)c1ccn(C(=O)N2CCC3(CCN(Cc4cc(Cl)ccc4Cl)C3)C2)n1 (stereo not shown) [Example 426, 1-(7-(2,5-dichlorobenzyl)-2,7-diazaspiro[4.4]non-ane-2-carbonyl)-1H-pyrazole-3-carboxamide] |  | > 75% |  |  |  |  | > 75% |
| NC(=O)c1ccn(C(=O)N2CCC3(CCN(Cc4cc(Cl)cc(C(F)(F)F)c4)C3)C2)n1 (stereo not shown) [Example 433, 1-(7-(3-chloro-5-(trifluoromethyl)benzyl)-2,7-diazaspiro[4.4]non-ane-2-carbonyl)-1H-pyrazole-3-carboxamide] |  | > 75% |  |  |  |  | > 75% |
